Values quoted from earlier work in patent US20240050486A1, “METHODS OF GENERATING CORTICAL EXCITATORY NEURONS” (Memorial Sloan-Kettering Cancer Center, priority 2021, published 2024).

Columns and labels:
WNT pathway (Porcupine) = conditions: at the level of the pathway activator Porcupine; read-out: IC50 WNT pathway inhibition

SMILES | degradation of β-catenin (SW480 cells) | protein levels of the axin-GSK3β complex (SW480 cells) | IC50 (WNT pathway (Porcupine)) [nM]
Oc1nc(-c2ccc(C(F)(F)F)cc2)nc2c1CSCC2 [XAV939] | promotes the degradation of β-catenin | increases the protein levels of the axin-GSK3β complex | –
Cc1ccc2nc(NC(=O)CSc3nc4c(c(=O)n3-c3ccccc3)SCC4)sc2c1 [IWP-2, N-(6-methyl-1,3-benzothiazol-2-yl)-2-[(4-oxo-3-phenyl-6,7-dihydrothieno[3,2-d]pyrimidin-2-yl)thio]acetamide] | – | – | 27
